In PubChem BioAssay (NCI):
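Cells were grown in 96-well plates and exposed to each compound for 48 hours at five concentrations; endpoints were interpolated linearly between bracketing concentrations, or set to the highest concentration if not reached. GI50 is the concentration that inhibits growth by half. TGI: total growth inhibition.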

Tests used:
Test in all cases: NCI-60 cell line screen, 48 h
786-0 renal = tested on: 786-0 renal
A498 renal = tested on: A498 renal
A549 NSCLC = tested on: A549 NSCLC
ACHN renal = tested on: ACHN renal
BT-549 breast = tested on: BT-549 breast
CAKI-1 renal = tested on: CAKI-1 renal
CCRF-CEM leukemia = tested on: CCRF-CEM leukemia
COLO 205 colon = tested on: COLO 205 colon
DU-145 prostate = tested on: DU-145 prostate
EKVX NSCLC = tested on: EKVX NSCLC
HCC-2998 colon = tested on: HCC-2998 colon
HCT-116 colon = tested on: HCT-116 colon
HCT-15 colon = tested on: HCT-15 colon
HL-60(TB) leukemia = tested on: HL-60(TB) leukemia
HOP-62 NSCLC = tested on: HOP-62 NSCLC
HOP-92 NSCLC = tested on: HOP-92 NSCLC
HS 578T breast = tested on: HS 578T breast
HT29 colon = tested on: HT29 colon
IGROV1 ovarian = tested on: IGROV1 ovarian
K-562 leukemia = tested on: K-562 leukemia
KM12 colon = tested on: KM12 colon
LOX IMVI melanoma = tested on: LOX IMVI melanoma
M14 melanoma = tested on: M14 melanoma
MALME-3M melanoma = tested on: MALME-3M melanoma
MCF7 breast = tested on: MCF7 breast
MDA-MB-231 breast = tested on: MDA-MB-231 breast
MDA-MB-435 = tested on: MDA-MB-435
MDA-MB-468 breast = tested on: MDA-MB-468 breast
MOLT-4 leukemia = tested on: MOLT-4 leukemia
NCI-H226 lung = tested on: NCI-H226 lung
NCI-H23 lung = tested on: NCI-H23 lung
NCI-H460 lung = tested on: NCI-H460 lung
NCI-H522 lung = tested on: NCI-H522 lung
NCI/ADR-RES ovarian = tested on: NCI/ADR-RES ovarian
OVCAR-3 ovarian = tested on: OVCAR-3 ovarian
OVCAR-4 ovarian = tested on: OVCAR-4 ovarian
OVCAR-5 ovarian = tested on: OVCAR-5 ovarian
OVCAR-8 ovarian = tested on: OVCAR-8 ovarian
PC-3 prostate = tested on: PC-3 prostate
RPMI-8226 leukemia = tested on: RPMI-8226 leukemia
RXF 393 renal = tested on: RXF 393 renal
SF-268 CNS = tested on: SF-268 CNS
SF-295 CNS = tested on: SF-295 CNS
SF-539 CNS = tested on: SF-539 CNS
SK-MEL-2 melanoma = tested on: SK-MEL-2 melanoma
SK-MEL-28 melanoma = tested on: SK-MEL-28 melanoma
SK-MEL-5 melanoma = tested on: SK-MEL-5 melanoma
SK-OV-3 ovarian = tested on: SK-OV-3 ovarian
SN12C renal = tested on: SN12C renal
SNB-19 CNS = tested on: SNB-19 CNS
SNB-75 CNS = tested on: SNB-75 CNS
SR leukemia = tested on: SR leukemia
SW-620 colon = tested on: SW-620 colon
T-47D breast = tested on: T-47D breast
TK-10 renal = tested on: TK-10 renal
U251 CNS = tested on: U251 CNS
UACC-257 melanoma = tested on: UACC-257 melanoma
UACC-62 melanoma = tested on: UACC-62 melanoma
UO-31 renal = tested on: UO-31 renal

For `CN1CCN(CCS(=O)(=O)Nc2cc(-c3ccc4ncnc(Nc5ccc(F)c(Cl)c5)c4c3)cnc2Cl)CC1`, the GI50 (786-0 renal) was 1.84 µM, the TGI (786-0 renal) was > 100 µM and the GI50 (A498 renal) was 1.03 µM. For the same molecule, the TGI (A498 renal) was 4.4 µM, the GI50 (A549 NSCLC) was 11.1 µM and the TGI (A549 NSCLC) was 49.9 µM. For the same molecule, the GI50 (ACHN renal) was 3.67 µM, the TGI (ACHN renal) was > 100 µM and the GI50 (BT-549 breast) was 1.06 µM. The TGI (BT-549 breast) was 4.28 µM, the GI50 (CAKI-1 renal) was 1.33 µM and the TGI (CAKI-1 renal) was 19 µM. The GI50 (CCRF-CEM leukemia) was 0.579 µM, the TGI (CCRF-CEM leukemia) was 80.4 µM and the GI50 (COLO 205 colon) was 2.74 µM. For the same molecule, the TGI (COLO 205 colon) was 10.4 µM, the GI50 (DU-145 prostate) was 3.23 µM and the TGI (DU-145 prostate) was > 100 µM. For the same molecule, the GI50 (EKVX NSCLC) was 1.23 µM, the TGI (EKVX NSCLC) was 6.36 µM and the GI50 (HCC-2998 colon) was 1.6 µM. For the same molecule, the TGI (HCC-2998 colon) was 6.2 µM, the GI50 (HCT-116 colon) was 4.18 µM and the TGI (HCT-116 colon) was 18.5 µM. The GI50 (HCT-15 colon) was 4.38 µM, the TGI (HCT-15 colon) was 43.6 µM and the GI50 (HL-60(TB) leukemia) was 0.658 µM. For the same molecule, the TGI (HL-60(TB) leukemia) was 23.7 µM, the GI50 (HOP-62 NSCLC) was 2.04 µM and the TGI (HOP-62 NSCLC) was 38.4 µM. For the same molecule, the GI50 (HOP-92 NSCLC) was 0.675 µM, the TGI (HOP-92 NSCLC) was 7.13 µM and the GI50 (HS 578T breast) was 0.32 µM. The TGI (HS 578T breast) was 3.75 µM, the GI50 (HT29 colon) was 3.87 µM and the TGI (HT29 colon) was 21.5 µM. The GI50 (IGROV1 ovarian) was 0.686 µM, the TGI (IGROV1 ovarian) was 2.93 µM and the GI50 (K-562 leukemia) was 4.5 µM. For the same molecule, the TGI (K-562 leukemia) was > 100 µM, the GI50 (KM12 colon) was 8.23 µM and the TGI (KM12 colon) was 31.5 µM. The GI50 (LOX IMVI melanoma) was 1.17 µM, the TGI (LOX IMVI melanoma) was 2.92 µM and the GI50 (M14 melanoma) was 3.34 µM. It also gave a TGI (M14 melanoma) of 20.5 µM, a GI50 (MALME-3M melanoma) of 0.726 µM and a TGI (MALME-3M melanoma) of 5.76 µM. For the same molecule, the GI50 (MCF7 breast) was 1.16 µM, the TGI (MCF7 breast) was 15.3 µM and the GI50 (MDA-MB-231 breast) was 1.74 µM. It also gave a TGI (MDA-MB-231 breast) of 4.13 µM, a GI50 (MDA-MB-435) of 3.11 µM and a TGI (MDA-MB-435) of 16 µM. It also gave a GI50 (MDA-MB-468 breast) of 0.205 µM, a TGI (MDA-MB-468 breast) of 0.902 µM and a GI50 (MOLT-4 leukemia) of 2.5 µM. The TGI (MOLT-4 leukemia) was 7.08 µM, the GI50 (NCI-H226 lung) was 1.96 µM and the TGI (NCI-H226 lung) was > 100 µM. It also gave a GI50 (NCI-H23 lung) of 2.8 µM, a TGI (NCI-H23 lung) of 15.1 µM and a GI50 (NCI-H460 lung) of 5.85 µM. For the same molecule, the TGI (NCI-H460 lung) was > 100 µM, the GI50 (NCI-H522 lung) was 1.96 µM and the TGI (NCI-H522 lung) was 11.3 µM. For the same molecule, the GI50 (NCI/ADR-RES ovarian) was 66.6 µM, the TGI (NCI/ADR-RES ovarian) was > 100 µM and the GI50 (OVCAR-3 ovarian) was 0.596 µM. For the same molecule, the TGI (OVCAR-3 ovarian) was 2.99 µM, the GI50 (OVCAR-4 ovarian) was 5.45 µM and the TGI (OVCAR-4 ovarian) was > 100 µM. The GI50 (OVCAR-5 ovarian) was 2.56 µM, the TGI (OVCAR-5 ovarian) was 27 µM and the GI50 (OVCAR-8 ovarian) was 3.73 µM. For the same molecule, the TGI (OVCAR-8 ovarian) was 23.1 µM, the GI50 (PC-3 prostate) was 2.09 µM and the TGI (PC-3 prostate) was 19.6 µM. It also gave a GI50 (RPMI-8226 leukemia) of 13.5 µM, a TGI (RPMI-8226 leukemia) of 38 µM and a GI50 (RXF 393 renal) of 0.784 µM. The TGI (RXF 393 renal) was 3.85 µM, the GI50 (SF-268 CNS) was 1.8 µM and the TGI (SF-268 CNS) was 37.7 µM. For the same molecule, the GI50 (SF-295 CNS) was 3.01 µM, the TGI (SF-295 CNS) was 65.1 µM and the GI50 (SF-539 CNS) was 1.82 µM. It also gave a TGI (SF-539 CNS) of 6.8 µM, a GI50 (SK-MEL-2 melanoma) of 2.32 µM and a TGI (SK-MEL-2 melanoma) of 7.79 µM. It also gave a GI50 (SK-MEL-28 melanoma) of 2.39 µM, a TGI (SK-MEL-28 melanoma) of 37.4 µM and a GI50 (SK-MEL-5 melanoma) of 1.61 µM. The TGI (SK-MEL-5 melanoma) was 4.34 µM, the GI50 (SK-OV-3 ovarian) was 1.59 µM and the TGI (SK-OV-3 ovarian) was 7.28 µM. For the same molecule, the GI50 (SN12C renal) was 3.25 µM, the TGI (SN12C renal) was > 100 µM and the GI50 (SNB-19 CNS) was 1.97 µM. For the same molecule, the TGI (SNB-19 CNS) was > 100 µM, the GI50 (SNB-75 CNS) was 0.458 µM and the TGI (SNB-75 CNS) was 11 µM. It also gave a GI50 (SR leukemia) of 2.06 µM, a TGI (SR leukemia) of 7.68 µM and a GI50 (SW-620 colon) of 1.95 µM. The TGI (SW-620 colon) was 38.6 µM, the GI50 (T-47D breast) was 0.221 µM and the TGI (T-47D breast) was 3.12 µM. The GI50 (TK-10 renal) was 1.83 µM, the TGI (TK-10 renal) was 13.2 µM and the GI50 (U251 CNS) was 3.12 µM. For the same molecule, the TGI (U251 CNS) was > 100 µM, the GI50 (UACC-257 melanoma) was 3.02 µM and the TGI (UACC-257 melanoma) was 17.2 µM. For the same molecule, the GI50 (UACC-62 melanoma) was 1.18 µM, the TGI (UACC-62 melanoma) was 9.65 µM and the GI50 (UO-31 renal) was 2.07 µM. For the same molecule, the TGI (UO-31 renal) was 13.4 µM.
